Data from patent publication USRE30241E, “Esters of 3-(hydroxy or hydroxymethyl)-4-hydroxyphenyl aminomethyl ketones” (Sterling Drug Inc., priority 1970, dated 1980).
Where two headings read alike, the source gives them in different places. Blank lines part the entries; values can stand above or below the molecule they belong to.

Tests used:
[1] = system: carbachol- or histamine-induced bronchoconstriction; assay: Bronchodilator Test Method I, anesthetized dog, intravenous activity; format: in vivo; details: Canis lupus familiaris; for inhibition in vivo at 0.002 mg/kg: 2 mcg/kg i.v.; for inhibition in vivo at 0.032 mg/kg: 32 mcg/kg i.v.; for inhibition in vivo at 0.128 mg/kg: 128 mcg/kg i.v.
Summary of the method: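 Pentobarbital-anesthetized (30 mg/kg i.v.), open-chest, artificially ventilated dogs were given i.v. carbachol (4-6 µg/kg) or histamine diphosphate (35-45 µg/kg). Test compound was given i.v. mixed with, after, or 1-10 min before the constrictor.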

[2] = Stability of test solutions; details: ethylenediaminetetraacetic acid added; distilled water or saline solutions
[3] = system: diastolic blood pressure; assay: Effect on diastolic blood pressure in the anesthetized dog; format: in vivo
Description: The effect of a rapid intravenous injection on the heart rate the heart rate was conducted in anesthetized dogs under normal respiration. A few open-chest dogs were also tested. Increase in heart rate was measured by using an electrocardiograph attached to the dog. Readings were taken every 0.5-1 minute for the first 10 minutes and every 2-5 minutes thereafter until recovery. In some cases, several doses and more than one compound were tested alternately in the same dog. The blood pressure effect was simultaneously recorded.

[4] = system: guinea pig bronchioles constricted by carbachol; assay: Bronchodilator Test Method II, in vitro perfused guinea pig lung; details: for ED50: carbachol (Doryl) 1:5 million
Description: In this method bronchodilator activity in vitro was determined by testing the effect of graded doses of the test compounds on guinea pig bronchioles constricted by carbachol, using the technique reported by Sollman and von Oettingen, Proc. Soc, Exp. Biol. Med., 25,692 (1928) as modified by Tainter, Pedden, and James, J. Pharm. Exp. Ther., 51, 371 (1934) and by Luduena, von Euler, Tullar, and Lands, Arch. intern. Pharmacol., III, 392 (1957).

[5] = system: heart rate; assay: Cardiovascular studies: effect on the heart rate in the anesthetized dog; format: in vivo
Summary of the method: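 Anesthetized dogs, mostly spontaneously breathing, some open-chest, given rapid intravenous injections. Heart rate by electrocardiograph with blood pressure recorded simultaneously, every 0.5-1 minute for 10 minutes then every 2-5 minutes until recovery; several doses or compounds sometimes tested alternately in one dog.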

[6] = system: carbachol- or histamine-induced bronchoconstriction; assay: Bronchodilator Test Method I, anesthetized dog, intraduodenal activity; format: in vivo; details: Canis lupus familiaris, read-out: Bronchodilation; for inhibition in vivo at 0.035 mg/kg: 35 mcg/kg (salt) intraduodenal; for inhibition in vivo at 0.07 mg/kg: 70 mcg/kg (salt) intraduodenal; for inhibition in vivo at 0.28 mg/kg: 280 mcg/kg (salt) intraduodenal; for inhibition in vivo at 0.032 mg/kg: 32 mcg/kg (salt) intraduodenal; for inhibition in vivo at 0.128 mg/kg: 128 mcg/kg (salt) intraduodenal
Summary of the method: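 Pentobarbital-anesthetized (30 mg/kg i.v.) open-chest dogs of 9-18 kg, artificially ventilated; airway pressure recorded via tracheal cannula transducer. Test solution injected intraduodenally; from 5 min, i.v. carbachol (4-6 μg/kg) or histamine diphosphate (35-45 μg/kg) challenges every 30-60 min gauged degree and duration of bronchodilation.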

[7] = 5 min, 5 min, read-out: Bronchodilatation
[8] = 5 min, 8 mcg/kg i.v., 5 min, read-out: Bronchodilatation
[9] = 0.5 h, 30 min, read-out: Bronchodilatation
[10] = 0.5 h, 8 mcg/kg i.v., 30 min, read-out: Bronchodilatation
[11] = 1 h, 8 mcg/kg i.v., 60 min, read-out: Bronchodilatation
[12] = 1 h, 60 min, read-out: Bronchodilatation
[13] = 2 h, 120 min, read-out: Bronchodilatation
[14] = 3 h, 180 min, read-out: Bronchodilatation
[15] = 4 h, 240 min, read-out: Bronchodilatation

Structure (SMILES): CNCC(O)c1ccc(O)c(O)c1 (stereo not drawn) [V, 3,4-Dihydroxy-alpha-(methylaminomethyl)benzyl alcohol, reference compound]
inhibition in vivo at 0.004 mg/kg ([1]; 1 min, read-out: Bronchodilatation, 4 mcg/kg i.v., 1-2 min): 0% | inhibition in vivo at 0.064 mg/kg ([1]; 1 min, read-out: Bronchodilatation, 64 mcg/kg i.v., 1-2 min): 29% | inhibition in vivo at 0.004 mg/kg ([1]; 10 min, read-out: Bronchodilatation, 4 mcg/kg i.v., 10 min): 0% | inhibition in vivo at 0.008 mg/kg ([1]; 10 min, read-out: Bronchodilatation, 8 mcg/kg i.v., 10 min): 0% | inhibition in vivo at 0.008 mg/kg ([1]; 0.5 h, read-out: Bronchodilatation, 8 mcg/kg i.v., 30 min): 0% | inhibition in vivo at 0.016 mg/kg ([1]; 0.5 h, read-out: Bronchodilatation, 16 mcg/kg i.v., 30 min): 5% | inhibition in vivo at 0.064 mg/kg ([1]; 0.5 h, read-out: Bronchodilatation, 64 mcg/kg i.v., 30 min): 0% | need for stabilizing agent in solution [2]: required to stabilize them

need for stabilizing agent in solution [2]: required to stabilize them
Structure (SMILES): CC(C)(C)NCC(O)c1ccc(O)c(O)c1 (stereo not drawn) [Ref. Cpd. I, 3,4-Dihydroxy-alpha-(tert-butylaminomethyl)benzyl alcohol, reference compound]
Mean Decrease in Diastolic Blood Pressure ([3]; 0.17 meg/kg (salt) i.v.): 13% | Mean Decrease in Diastolic Blood Pressure ([3]; 0.35 meg/kg (salt) i.v.): 33% | Mean Decrease in Diastolic Blood Pressure ([3]; 0.7 meg/kg (salt) i.v.): 41% | ED50 [4]: 0.18 µg (base) | Duration, Mean ([4]; dose 0.32 mcg (base)): 5 ± 1.4 min | inhibition in vivo at 0.00017 mg/kg ([1]; 1 min, 0.17 mcg/kg i.v., 1-2 min, read-out: Bronchodilatation): 22% | inhibition in vivo at 0.00035 mg/kg ([1]; 1 min, 0.35 mcg/kg i.v., 1-2 min, read-out: Bronchodilatation): 57% | Mean Maximal Increase in the Heart Rate ([5]; 0.17 mcg/kg (salt) i.v.): 20% | Mean Maximal Increase in the Heart Rate ([5]; 0.35 mcg/kg (salt) i.v.): 32% | Mean Maximal Increase in the Heart Rate ([5]; 0.7 mcg/kg (salt) i.v.): 44% | inhibition in vivo at 0.035 mg/kg ([6]; 10 min, 10 min): 34% | inhibition in vivo at 0.07 mg/kg ([6]; 10 min, 10 min): 40% | inhibition in vivo at 0.28 mg/kg ([6]; 10 min, 10 min): 66% | inhibition in vivo at 0.035 mg/kg ([6]; 0.5 h, 30 min): 41% | inhibition in vivo at 0.07 mg/kg ([6]; 0.5 h, 30 min): 60% | inhibition in vivo at 0.28 mg/kg ([6]; 0.5 h, 30 min): 59% | inhibition in vivo at 0.035 mg/kg ([6]; 1 h, 60 min): 44% | inhibition in vivo at 0.07 mg/kg ([6]; 1 h, 60 min): 35% | inhibition in vivo at 0.28 mg/kg ([6]; 1 h, 60 min): 46% | inhibition in vivo at 0.035 mg/kg ([6]; 2 h, 120 min): 27% | inhibition in vivo at 0.07 mg/kg ([6]; 2 h, 120 min): 30% | inhibition in vivo at 0.28 mg/kg ([6]; 2 h, 120 min): 54% | inhibition in vivo at 0.035 mg/kg ([6]; 3 h, 180 min): 3% | inhibition in vivo at 0.28 mg/kg ([6]; 3 h, 180 min): 30% | inhibition in vivo at 0.07 mg/kg ([6]; 4 h, 240 min): 0%

need for stabilizing agent in solution [2]: required to stabilize them
Structure (SMILES): CCC(NC(C)C)C(O)c1ccc(O)c(O)c1 (stereo not drawn) [IV, 3,4-Dihydroxy-alpha-[1-(isopropylamino)-propyl]benzyl alcohol, reference compound]
inhibition in vivo at 0.002 mg/kg [1, 7]: 32% | inhibition in vivo at 0.004 mg/kg ([1]; 5 min, 4 mcg/kg i.v., 5 min, read-out: Bronchodilatation): 72% | inhibition in vivo at 0.008 mg/kg [1, 8]: 74% | inhibition in vivo at 0.002 mg/kg [1, 9]: 0% | inhibition in vivo at 0.004 mg/kg ([1]; 0.5 h, 4 mcg/kg i.v., 30 min, read-out: Bronchodilatation): 31% | inhibition in vivo at 0.008 mg/kg [1, 10]: 13% | inhibition in vivo at 0.004 mg/kg ([1]; 1 h, 4 mcg/kg i.v., 60 min, read-out: Bronchodilatation): 19% | inhibition in vivo at 0.008 mg/kg [1, 11]: 13%

Structure (SMILES): COc1ccc(C(=O)Oc2ccc(C(O)CNC(C)(C)C)cc2COC(C)=O)cc1 (stereo not drawn) [Example 151, 3-(acetoxymethyl)-4-(p-anisoyloxy)-alpha-(tert-butylaminomethyl)benzyl alcohol]
Mean Decrease in Diastolic Blood Pressure ([3]; 32 meg/kg (salt) i.v.): 10% | Mean Decrease in Diastolic Blood Pressure ([3]; 128 meg/kg (salt) i.v.): 10% | ED50 [4]: 5.1 µg (base) | Duration, Mean ([4]; dose 10 mcg (base)): 67.3 ± 33.7 min | inhibition in vivo at 0.008 mg/kg [1, 8]: 43% | inhibition in vivo at 0.032 mg/kg [1, 7]: 54% | inhibition in vivo at 0.128 mg/kg [1, 7]: 85% | inhibition in vivo at 0.008 mg/kg [1, 10]: 33% | inhibition in vivo at 0.032 mg/kg [1, 9]: 46% | inhibition in vivo at 0.128 mg/kg [1, 9]: 81% | inhibition in vivo at 0.008 mg/kg [1, 11]: 50% | inhibition in vivo at 0.032 mg/kg [1, 12]: 41% | inhibition in vivo at 0.128 mg/kg [1, 12]: 81% | inhibition in vivo at 0.008 mg/kg ([1]; 2 h, 8 mcg/kg i.v., 120 min, read-out: Bronchodilatation): 43% | inhibition in vivo at 0.032 mg/kg [1, 13]: 54% | inhibition in vivo at 0.128 mg/kg [1, 13]: 73% | inhibition in vivo at 0.008 mg/kg ([1]; 3 h, 8 mcg/kg i.v., 180 min, read-out: Bronchodilatation): 30% | inhibition in vivo at 0.032 mg/kg [1, 14]: 21% | inhibition in vivo at 0.128 mg/kg [1, 14]: 69% | inhibition in vivo at 0.032 mg/kg [1, 15]: 18% | inhibition in vivo at 0.128 mg/kg [1, 15]: 64% | inhibition in vivo at 0.008 mg/kg ([1]; 4.5 h, 8 mcg/kg i.v., 270 min, read-out: Bronchodilatation): 20% | inhibition in vivo at 0.128 mg/kg ([1]; 4.5 h, 270 min, read-out: Bronchodilatation): 52% | Mean Maximal Increase in the Heart Rate ([5]; 32 mcg/kg (salt) i.v.): 18 Beats/Minute | Mean Maximal Increase in the Heart Rate ([5]; 128 mcg/kg (salt) i.v.): 24 Beats/Minute | inhibition in vivo at 0.032 mg/kg ([6]; 5 min, 5 min): 24% | inhibition in vivo at 0.128 mg/kg ([6]; 5 min, 5 min): 54% | inhibition in vivo at 0.032 mg/kg ([6]; 0.5 h, 30 min): 40% | inhibition in vivo at 0.128 mg/kg ([6]; 0.5 h, 30 min): 63% | inhibition in vivo at 0.032 mg/kg ([6]; 1 h, 60 min): 36% | inhibition in vivo at 0.128 mg/kg ([6]; 1 h, 60 min): 66% | inhibition in vivo at 0.032 mg/kg ([6]; 2 h, 120 min): 36% | inhibition in vivo at 0.128 mg/kg ([6]; 2 h, 120 min): 66% | inhibition in vivo at 0.032 mg/kg ([6]; 3 h, 180 min): 28% | inhibition in vivo at 0.128 mg/kg ([6]; 3 h, 180 min): 66% | inhibition in vivo at 0.032 mg/kg ([6]; 5 h, 300 min): 20% | inhibition in vivo at 0.128 mg/kg ([6]; 5 h, 300 min): 43%
